Consider four molecules from patent US9642921B2, “Cancer combination therapy and recombinant vectors” (Tocagen Inc., priority 2012, dated 2017).

Series [1] relates to Tu-2449 cells (naive and Toca 511-transduced). Kind of series: In vitro 5-FC sensitivity assay (XTT viability). Format: cell-based, mouse. Particulars: day 6. The procedure:
(§1) Tu-2449 and U-87MG cells were infected with ˜1×10^4 transducing units (TU) ml^−1 of Toca 511 in the presence of polybrene (8 mgml^−1). Cells were passaged 2-3 times a week for 17 days. […] Cells were seeded on day 0 at a concentration of 1×10^3 cells per well of a 96-well plate in […] of culture medium (Dulbecco's modified Eagle's mediump10% fetal calf serum+gentamicin (17 mg per 100 ml)). On day 1, […] of culture medium containing 5-FC (range 0-1000 mgml^−1), TMZ (range 0-100 mgml^−1) or both drugs (5-FC (range 0-1.6 mgml^−1) and TMZ (2 mgml^−1)) was added to the cells. Viability was measured on day 6 using Cell Proliferation Kit II (XTT) (Roche, Indianapolis, Ind., USA) as recommended by the manufacturer.
(§2) Two glioma lines U-87MG (TMZ-sensitive) and Tu-2449 (TMZ-resistant) were chosen to examine the compatibility of TMZ and Toca 511p5-FC treatment in previously infected cells. These two cell lines were cultured as either non-transduced control or 100% Toca 511-transduced cells. Sensitivity to 5-FC was examined by measuring cell viability after culture in increasing amounts of 5-FC. […] In addition, cell viability was examined in the nontransduced and transduced cell lines treated with increasing amounts of TMZ.
A general note: Formazan colour is commonly taken as a measure of viable cells.

Series [2] has as its system U-87MG cells (naive and Toca 511-transduced). Kind of series: In vitro 5-FC sensitivity assay (XTT viability). Format: cell-based, human. The following applies: day 6. The procedure:
as §1, §2

For series [3] the following is noted: pharmacokinetic studies; cited from earlier work.
For series [4], the system named is LN-18. Kind of series: In vitro RRV-GFP spread (FACS). Format: cell-based, human. The following applies: TMZ up to 20 mgml^−1 added 24 h before RRV-GFP, by day 19. The protocol: (§3) Two different TMZ schedules were tested. To test the effect of preincubation with TMZ, cells were seeded at a density of 1×10^5 cells per well on six-well plates. After 24 h, different concentrations of TMZ were added to the cells. The next day, cells were infected with RRV-GFP vector at a multiplicity of infection of 0.1. To test the effect of concomitant TMZ, cells were seeded at a density of 1×10^5 cells per well on six-well plates. After 48 h, cells were infected with RRV-GFP vector at a multiplicity of infection of 0.1 in the presence of different concentrations of TMZ. The following day, cells were transferred to T25 flasks keeping the indicated TMZ concentration. Cells were analyzed three times a week by enhanced green fluorescent protein fluorescence-activated cell sorting analysis for virus spread, maintaining the indicated TMZ concentration during the entire experiment.
(§4) To test any possible effect of TMZ on the spread of Toca 511, the same panel of glioma cells was treated with different concentrations of TMZ depending on the TMZ sensitivity of the cells determined in the clonogenic assay in FIG. 1b. In addition, vector with the same backbone as Toca 511 but encoding a GFP transgene (RRV-GFP) was used to assess vector spread by fluorescence-activated cell sorting analysis. Two TMZ treatment schedules were tested. The first schedule tested treatment with varying concentrations of TMZ before and during the time of vector infection, and the second schedule tested treatment with varying concentrations of TMZ at the same time as the addition of vector. In the first schedule, glioma cells were incubated with different concentrations of TMZ 24 h before the addition of RRVGFP at a multiplicity of infection of 0.1. […] There was an initial lag or decrease in GFP positivity at earlier time points (FIG. 2a). […] In the second schedule, when TMZ and RRV-GFP were added to the glioma cells concomitantly, the same trend was observed; after an initial lag, cells reached nearly 100% GFP positivity in the presence of TMZ (FIG. 2b). The observed infectivity lag was likely due to induction of apoptosis in a certain percentage of cells with TMZ treatment. Surviving cells were still susceptible to infection with RRV-GFP and able to produce more RRV-GFP virus for further infection and spread within the culture dish. […] Rather the data is consistent with the conclusion that slowing of tumor cell replication with the anticancer drug TMZ, slows the replication of the RRV because of the inhibition of cancer cell replication and the requirement for cell replication for productive infection with RRV.

Series [5] concerns U-87MG. Put plainly: In vitro RRV-GFP spread (FACS). Format: cell-based, human. The following applies: 10 mgml^−1 of TMZ. The protocol:
as §3, §4

For series [6], the system named is LN-229. Put plainly: In vitro RRV-GFP spread (FACS). Format: cell-based, human. Particulars: 1 and 2 mgml^−1 TMZ added 24 h before RRV-GFP, by day 16. The protocol: as §3, §4
Series [7] has as its system 8-MG-BA. Kind of series: In vitro RRV-GFP spread (FACS). The format is cell-based, human. Particulars: 1 and 2 mgml^−1 TMZ added 24 h before RRV-GFP, by day 16. The protocol: as §3, §4
The nature of series [8]: Dose finding study 5-FC and TMZ, hematological examination, healthy B6C3/F1 mice. The format is in vivo, mouse. The procedure: A dose finding study was conducted in healthy B6C3/F1 hybrid mice to evaluate the clinical effects and possible hematological changes during concomitant administration of 5-FC and TMZ. Both drugs are known to cause hematological toxicity in some circumstances and therefore it is important to examine any potential drug interaction with respect to this potentially toxic side effect. Three concentrations of TMZ (25, 60 and 125 mgkg^−1) in combination with a fixed dose of 5-FC (500 mgkg^−1 per dose) were administered intraperitoneal SID for 4 consecutive days starting on days 1, 8, 22 and 36. Mice were terminated on day 51 for hematological examination.

For series [9], the system named is five glioma cell lines (U-87MG, LN-18, LN-229, 8-MG-BA, Tu-2449). Format: cell-based, human and mouse. The procedure:
as §3
(§5) To test any possible effect of TMZ on the spread of Toca 511, the same panel of glioma cells was treated with different concentrations of TMZ depending on the TMZ sensitivity of the cells determined in the clonogenic assay in FIG. 1b. In addition, vector with the same backbone as Toca 511 but encoding a GFP transgene (RRV-GFP) was used to assess vector spread by fluorescence-activated cell sorting analysis. Two TMZ treatment schedules were tested. […]

A short description of series [10]: Dose finding study 5-FC and TMZ, hematological examination, healthy athymic mice. Format: in vivo, mouse. The protocol: To test the effect of the combination therapy of TMZ and Toca 511+5-FC treatment in a TMZ-sensitive cell line in vivo, the U-87MG cell line was used in an orthotopic xenograft glioma model in immunocompromised mice. A similar TMZ dose finding study as for the C3B6F1-immunocompetent mice was conducted in healthy athymic mice to evaluate the clinical effects and possible hematological changes during concomitant administration of 5-FC and TMZ. Two concentrations of TMZ (25 and 60 mgkg^−1) in combination with a fixed dose of 5-FC (500 mgkg^−1 per dose) were administered intraperitoneal SID for 4 consecutive days starting on days 1, 15, 29 and 43. Mice were terminated on day 53 for hematological examination.

Series [11] concerns Tu-2449. Put plainly: In vitro RRV-GFP spread (FACS). The format is cell-based, mouse. Particulars: TMZ up to 20 mgml^−1 added 24 h before RRV-GFP, by day 19. The procedure: as §3, §5
The subject of series [12] is human NET cell lines. Particulars: capecitabine and TMZ in human NET cell lines; cited from earlier work.
[13] abbreviates: highest TMZ dose (125 mgm^−2) coadministered with 5-FC.

As for `Nc1nc(=O)[nH]cc1F` [5-FC, 5-fluorocytosine], the “sensitivity to 5-FC (cell viability)” value in series [1] (Toca 511-transduced Tu-2449) is reported as “sensitive to 5-FC in a dose-dependent manner”; in [1] (naive (non-transduced) Tu-2449, up to 100 mgml^−1 5-FC), “highly resistant”; in [2] (Toca 511-transduced U-87MG) it was “sensitive to 5-FC in a dose-dependent manner”; in series [2] (naive (non-transduced) U-87MG, up to 100 mgml^−1 5-FC) it was “highly resistant”.

On to `O=c1[nH]cc(F)c(=O)[nH]1` [5-FU, 5-fluorouracil], for which the “blood brain barrier passage” value in [3] is “crosses the blood brain barrier”.

For `Cn1nnc2c(C(N)=O)ncn2c1=O` [TMZ, Temozolomide], the GFP positivity in series [4] was ~100%; in series [6], 100%; in [7], 100%; in [9] it was ~100%; in [11] it was ~100%. For the same molecule, the cells killed in series [5] is given as ~90%. Moreover, the hematological changes result in [8] (TMZ 25 mgkg^−1 per day (human equivalent of 75 mgm^−2) with 5-FC 500 mgkg^−1 per dose) is “without significant hematological changes”; in [10] (TMZ 60 mgkg^−1 (human equivalent of 200 mgm^−2) in combination with 5-FC), “substantially severe hematological changes (leukocytopenia, thrombocytopenia)”. The leukocytes entry in series [8] (setting [13]) is given as “almost complete loss”. For the same molecule, the platelet counts entry in series [8] (setting [13]) was “significant reduction”. Moreover, the “increase in ALT activity” value in series [10] (TMZ 60 mgkg^−1 in combination with 5-FC) was “five fold increase”. Also, the “changes in hematological parameters” value in series [10] (lower TMZ dose of 25 mgkg^−1 in combination with 5-FC) is reported as “mild changes”.

As to `CCCCCOC(=O)Nc1nc(=O)n([C@@H]2O[C@H](C)[C@@H](O)[C@H]2O)cc1F` [capecitabine], in [12], the “induction of apoptosis, combination effect” value was “synergistic”.
